Counter-ions that a name gives are not always drawn. Like-named read-outs stand apart in the source and are kept apart here.
What was measured:
Test in all cases: MIC, Agar (Mueller Hinton) Dilution Method
Type in all cases: cell-based
Mycobacterium phlei 78 = details: Mycolicibacterium phlei; Mycobacterium phlei 78; Gram Positive and Others; read-out: MIC
Excerpt: (§1) The in vitro activity of the compounds of formula I of the present invention as measured by the Minimum Inhibitory Concentration (MIC) in micrograms/ml utilizing the Agar (Mueller Hinton) Dilution Method against a variety of Gram-positive and Gram-negative organisms, is set forth in Table 1.

Enter. cloacae 5699 = details: Enterobacter cloacae, Gram Negative
Excerpt: as §1

Staph. aureus 3647B = details: Staphylococcus aureus
Excerpt: as §1

Ps. aeruginosa 1937E = details: Pseudomonas aeruginosa, Gram Negative
Excerpt: as §1

Ser. sp. 101 = details: Ser. sp. 101; Gram Negative; read-out: MIC
Excerpt: as §1

Ent. hirae ATCC 8043 = details: Enterococcus hirae, ATCC8043, Gram Positive and Others
Excerpt: as §1

[1] = test system: Proteus vulgaris ATCC 6380; details: ATCC6380; Proteus vulgaris ATCC 6380; constitutive ß-lactamase producer; Gram Negative; read-out: MIC
Excerpt: as §1

K. pneumoniae 369 = details: Klebsiella pneumoniae
Excerpt: as §1

Prot. mirabilis 2 = details: Proteus mirabilis; Prot. mirabilis 2; Gram Negative; read-out: MIC
Excerpt: as §1

E. coli TEM-1a = details: Escherichia coli, TEM1A
Excerpt: as §1

E. coli B = details: Escherichia coli, Gram Negative
Excerpt: as §1

Ps. aeruginosa 56 = details: Pseudomonas aeruginosa, Gram Negative
Excerpt: as §1

Ps. aeruginosa K799/61 = details: Pseudomonas aeruginosa
Excerpt: as §1

E. coli Leo HA2M4 = details: Escherichia coli, LEOHA2M4
Excerpt: as §1

Staph. pyogenes 4 = test system: Staph. pyogenes 4
Excerpt: as §1

Staph. aureus 404 = details: Staphylococcus aureus
Excerpt: as §1

Cit. freundii EL-1408 = details: Citrobacter freundii, EL1408
Excerpt: as §1

[2] = test system: Citrobacter freundii BS-16; details: BS16; Citrobacter freundii BS-16; constitutive ß-lactamase producer; Gram Negative; read-out: MIC
Excerpt: as §1

Ps. aeruginosa K799/WT = details: Pseudomonas aeruginosa, Gram Negative
Excerpt: as §1

E. coli Leo HA2 = details: Escherichia coli, LEOHA2, Gram Negative
Excerpt: as §1

E. coli 94 = details: Escherichia coli, Gram Negative
Excerpt: as §1

E. coli ATCC 25922 = details: Escherichia coli, ATCC25922
Excerpt: as §1

Serratia marcescens SM = test system: Serratia marcescens SM
Excerpt: as §1

Prot. mirabilis 190 = details: Proteus mirabilis
Excerpt: as §1

K. oxytoca 1082EN = details: Klebsiella oxytoca
Excerpt: as §1

Enter. cloacae 4192-2 = details: Enterobacter cloacae, 41922
Excerpt: as §1

E. coli 4 = details: Escherichia coli
Excerpt: as §1

E. coli HMS1 = details: Escherichia coli
Excerpt: as §1

Enter. cloacae 4946 = details: Enterobacter cloacae, Gram Negative
Excerpt: as §1

Ps. aeruginosa 1973 E = details: Pseudomonas aeruginosa, Gram Negative
Excerpt: as §1

A. calcoaceticus PCI-3 = details: Acinetobacter calcoaceticus, PCI3, Gram Negative
Excerpt: as §1

Prot. mirabilis 503-1136 = details: Proteus mirabilis, 5031136; Prot. mirabilis 503-1136; Gram Negative; read-out: MIC
Excerpt: as §1

Str. pyogenes 503-782 = details: Streptococcus pyogenes, 503782
Excerpt: as §1

Ser. marcescens MA = details: Serratia marcescens, Gram Negative
Excerpt: as §1

Prot. vulgaris 1028 BC = details: Proteus vulgaris
Excerpt: as §1

[3] = test system: Ps. aeruginosa ATCC 27853; details: Pseudomonas aeruginosa, ATCC27853, Gram Negative
Excerpt: as §1

[4] = test system: Streptococcus pneumoniae 6303; details: Streptococcus pneumoniae, 6303
Excerpt: as §1

Ps. aeruginosa 8780 = details: Pseudomonas aeruginosa, Gram Negative
Excerpt: as §1

[5] = Staph. aureus 3647B, Gram Positive and Others, read-out: MIC
[6] = K. pneumoniae 369, Gram Negative, read-out: MIC
[7] = Ps. aeruginosa K799/61, Gram Negative, read-out: MIC
[8] = E. coli Leo HA2M4, Gram Negative, read-out: MIC
[9] = Staph. pyogenes 4, Gram Positive and Others, read-out: MIC
[10] = Staph. aureus 404, Gram Positive and Others, read-out: MIC
[11] = Cit. freundii EL-1408, Gram Negative, read-out: MIC
[12] = Serratia marcescens SM, constitutive ß-lactamase producer, Gram Negative, read-out: MIC
[13] = Prot. mirabilis 190, Gram Negative, read-out: MIC
[14] = E. coli HMS1, Gram Negative, read-out: MIC
[15] = Str. pyogenes 503-782, Gram Positive and Others, read-out: MIC
[16] = K. oxytoca 1082EN, Gram Negative, read-out: MIC
[17] = Enter. cloacae 4192-2, Gram Negative, read-out: MIC

Row | Compound | MIC (Mycobacterium phlei 78) [µg/mL] | MIC (Enter. cloacae 5699) [µg/mL] | MIC (Ps. aeruginosa 1937E) [µg/mL] | MIC (Ser. sp. 101) [µg/mL] | MIC (Ent. hirae ATCC 8043) [µg/mL] | MIC [1] [µg/mL] | MIC (Prot. mirabilis 2) [µg/mL] | MIC (E. coli TEM-1a) [µg/mL] | MIC (E. coli B) [µg/mL] | MIC (Ps. aeruginosa 56) [µg/mL] | MIC [2] [µg/mL] | MIC (Ps. aeruginosa K799/WT) [µg/mL] | MIC (E. coli Leo HA2) [µg/mL] | MIC (E. coli 94) [µg/mL] | MIC (Enter. cloacae 4946) [µg/mL] | MIC (Ps. aeruginosa 1973 E) [µg/mL] | MIC (A. calcoaceticus PCI-3) [µg/mL] | MIC (Prot. mirabilis 503-1136) [µg/mL] | MIC (Ser. marcescens MA) [µg/mL] | MIC [3] [µg/mL] | other results
1 | O=C(Cc1cccs1)N[C@@H]1C(=O)N2C(C(=O)O)=C(COC(=O)N3CCN(c4c(F)cc5c(=O)c(C(=O)O)cn(C6CC6)c5c4F)CC3)CS[C@H]12 [Formula Ia, [6R,7R]-3-[[[[4-(3-Carboxy-1-cyclopropyl-6,8-difluoro-1,4-dihydro-4-oxo-7-quinolinyl)-1-piperazinyl]carbonyl]-oxy]-methyl]-8-oxo-7-[(2-thienylacetyl)amino]-5-thia-1-azabicyclo-[4.2.0]oct-2-ene-2-carboxylic acid] | 0.125 | 0.125 | 1 | 0.5 | 2 | 0.125 | 0.25 | 0.0625 | 0.0313 | 1 | 0.0313 | 2 | ≤ 0.0156 | 0.0625 | 0.0625 | 1 | 0.25 | 0.5 | 16 | 1 | MIC (Staph. aureus 3647B; [5]): 0.5 µg/mL; MIC (K. pneumoniae 369; [6]): 0.5 µg/mL; MIC (Ps. aeruginosa K799/61; [7]): 2 µg/mL; MIC (E. coli Leo HA2M4; [8]): ≤ 0.0156 µg/mL; MIC (Staph. pyogenes 4; [9]): ≤ 0.0156 µg/mL; MIC (Staph. aureus 404; [10]): 0.5 µg/mL; MIC (Cit. freundii EL-1408; [11]): 0.25 µg/mL; MIC (E. coli ATCC 25922): 0.0625 µg/mL; MIC (Serratia marcescens SM; [12]): 0.5 µg/mL; MIC (Prot. mirabilis 190; [13]): 0.125 µg/mL; MIC (K. oxytoca 1082EN; 1082EN): 0.0625 µg/mL; MIC (Enter. cloacae 4192-2): 0.0625 µg/mL; MIC (E. coli 4; E. coli 4, Gram Negative, read-out: MIC): 0.125 µg/mL; MIC (E. coli HMS1; [14]): ≤ 0.0156 µg/mL; MIC (Str. pyogenes 503-782; [15]): ≤ 0.0156 µg/mL; MIC (Prot. vulgaris 1028 BC; 1028BC): 0.0625 µg/mL
2 | N#CCC(=O)N[C@@H]1C(=O)N2C(C(=O)O)=C(COC(=O)NC3CCN(c4c(F)cc5c(=O)c(C(=O)O)cn(C6CC6)c5c4F)C3)CS[C@H]12 (stereo partly shown) [Formula Ib, [6R,7R]-3-[[[[[1-(3-Carboxy-1-cyclopropyl-6,8-difluoro-1,4-dihydro-4-oxo-7-quinolinyl-3-[R,S]-pyrrolidinyl]-amino]carbonyl]oxy]methyl]-7-[(cyanoacetyl)amino]-8-oxo-5-thia-1-azabicyclo[4.2.0]oct-2-ene-2-carboxyiic acid monosodium salt] | 0.25 | 0.25 | 0.5 | 0.25 | 2 | 0.25 | 0.25 | 0.125 | 0.0625 | 0.5 | 0.0625 | 0.5 | 0.0156 | 0.125 | 0.125 | 0.5 | 0.25 | 0.25 | 4 | 1 | MIC (Staph. aureus 3647B; [5]): 0.25 µg/mL; MIC (K. pneumoniae 369; [6]): 0.25 µg/mL; MIC (Ps. aeruginosa K799/61; K799/61): 0.125 µg/mL; MIC (E. coli Leo HA2M4): 0.0313 µg/mL; MIC (Staph. pyogenes 4; [9]): 0.0625 µg/mL; MIC (Staph. aureus 404; [10]): 0.25 µg/mL; MIC (Cit. freundii EL-1408; [11]): 0.25 µg/mL; MIC [4]: 0.125 µg/mL; MIC (Ps. aeruginosa 8780): 1 µg/mL; MIC (E. coli ATCC 25922; E. coli ATCC 25922, Gram Negative, read-out: MIC): 0.0625 µg/mL; MIC (Serratia marcescens SM; [12]): 0.25 µg/mL; MIC (Prot. mirabilis 190; [13]): 0.25 µg/mL; MIC (K. oxytoca 1082EN; [16]): 0.0625 µg/mL; MIC (Enter. cloacae 4192-2; [17]): 0.0625 µg/mL; MIC (E. coli 4; 4): 0.125 µg/mL; MIC (E. coli HMS1; HMS1): 0.0313 µg/mL; MIC (Str. pyogenes 503-782; [15]): 0.0625 µg/mL; MIC (Prot. vulgaris 1028 BC; 1028BC): 0.125 µg/mL
3 | N#CCC(=O)N[C@@H]1C(=O)N2C(C(=O)O)=C(COC(=O)N[C@H]3CCN(c4c(F)cc5c(=O)c(C(=O)O)cn(C6CC6)c5c4F)C3)CS[C@H]12 [Formula Iba, [6R-[3(S^*), 6 alpha, 7 beta]]-3-[[[[[1-(3-Carboxy-1-cyclopropyl-6,8-difluoro-1,4-dihydro-4-oxo-7-quinolinyl-3-pyrrolidinyl]-amino]carbonyl]oxy]methyl]-7-[(cyanoacetyl)amino]-8-oxo-5-thia 1-azabicyclo[4.2.0]oct-2-ene-2-carboxylic acid monosodium salt] | 0.0625 | 0.0625 | 0.25 | 0.0625 | 0.5 | 0.0625 | 0.0625 | 0.0313 | ≤ 0.0156 | 0.25 | ≤ 0.0156 | 0.5 | ≤ 0.0156 | 0.0313 | 0.0313 | 0.25 | 0.0625 | 0.0625 | 4 | 1 | MIC (Staph. aureus 3647B; 3647B): 0.0313 µg/mL; MIC (K. pneumoniae 369; 369): 0.125 µg/mL; MIC (Ps. aeruginosa K799/61; [7]): 0.0625 µg/mL; MIC (E. coli Leo HA2M4; [8]): ≤ 0.0156 µg/mL; MIC (Staph. pyogenes 4; 4): 0.0313 µg/mL; MIC (Staph. aureus 404; 404): 0.0313 µg/mL; MIC (Cit. freundii EL-1408): 0.125 µg/mL; MIC [4]: 0.0313 µg/mL; MIC (Ps. aeruginosa 8780): 0.5 µg/mL; MIC (E. coli ATCC 25922): 0.0313 µg/mL; MIC (Serratia marcescens SM; Serratia marcescens): 0.125 µg/mL; MIC (Prot. mirabilis 190; 190): 0.0313 µg/mL; MIC (K. oxytoca 1082EN; [16]): ≤ 0.0156 µg/mL; MIC (Enter. cloacae 4192-2; [17]): ≤ 0.0156 µg/mL; MIC (E. coli 4; 4): 0.0313 µg/mL; MIC (E. coli HMS1; [14]): ≤ 0.0156 µg/mL; MIC (Str. pyogenes 503-782): 0.0313 µg/mL; MIC (Prot. vulgaris 1028 BC; Prot. vulgaris 1028 BC, Gram Negative, read-out: MIC): ≤ 0.0156 µg/mL

Source: patent EP0597303A2, “Cephalosporin derivatives” (priority 1992, dated 1994)
